From patent US9458128B2, “Catechol O-methyltransferase activity inhibiting compounds” (Orion Corporation, priority 2012, dated 2016)
pKi: −log10 of the molar value.

Tests used:
[1] = Determination of levodopa concentration in rat plasma; type: in vivo; conditions: entacapone = 1.00, adult male Wistar rats, COMT inhibitor dosed orally with levodopa+carbidopa
Protocol: Levodopa concentration in rat plasma was determined substantially as described in e.g. Kim, T. K. et al. European Journal of Pharmaceutical Sciences, 38 (2009) 525. The studies were performed in adult male Wistar rats. The COMT inhibitor was dosed orally over a range of doses and several sampling time points were chosen between 0 min and 300 min after drug administration (levodopa+carbidopa and COMT inhibitor). Blood samples were collected by cardiac puncture under CO2 anaesthesia into pre-cooled K2EDTA tubes and kept on ice until the separation of plasma by centrifugation. For levodopa analysis, 75 μl of separated plasma was pipetted without delay into pre-cooled polypropylene tubes containing a conserving agent. All the samples were stored at −80° C. nominal until analyzed. Plasma levels of levodopa were determined by LC-MS/MS (or HPLC). Standard pharmacokinetic methods were used to evaluate the concentration—time data by non-compartmental analysis modeling. The analyses were performed using WinNonlin® Professional v. 5.0.1.

[2] = biological target: T1, recombinant human soluble COMT (S-COMT) (Homo sapiens, UniProt P21964); experiment: COMT inhibiting activity in vitro, Assay 1 (fluorescence plate reader); type: biochemical; conditions: Assay 1: 12 nM S-COMT, 60 min preincubation at 37° C., substrate esculetin, Morrison equation
T1 sequence (P21964 1-221 isoform P21964-2): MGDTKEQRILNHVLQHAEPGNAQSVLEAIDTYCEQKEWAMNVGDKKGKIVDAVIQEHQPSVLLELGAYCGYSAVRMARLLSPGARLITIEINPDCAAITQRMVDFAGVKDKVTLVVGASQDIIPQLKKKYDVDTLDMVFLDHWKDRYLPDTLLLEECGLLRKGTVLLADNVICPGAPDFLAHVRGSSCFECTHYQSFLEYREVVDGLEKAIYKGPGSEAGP
Protocol: (§1) The inhibitory potency was determined by measuring recombinant human soluble COMT (S-COMT) activity at various compound concentrations. COMT activity measurements were performed according to the method published in Kurkela, M. et al. Analytical Biochemistry, 331 (2004) 198 with slight modifications according to Assay 1 or Assay 2 described below.
Recombinant human S-COMT (12 nM) was preincubated with the COMT inhibitor and 400 μM S-adenosyl-L-methionine in 100 mM Na2HPO4 buffer, pH 7.4, containing 5 mM MgCl2 for 60 min at 37° C. The reaction was started with the addition of the substrate esculetin for a final concentration of […] and the production of O-methylated esculetin was followed with the FlexStation fluorescence plate reader ([…], USA) using excitation at 355 nm and emission at 460 nm. The inhibitor dissociation constant, Ki, of the studied compounds was calculated using the Morrison equation, which takes the tight binding inhibition into account (Copeland, R. A. Evaluation of Enzyme Inhibitors in Drug Discovery. A Guide for Medicinal Chemists and Pharmacologists, John Wiley & Sons, Inc., Hoboken, N.J., 2005, pp. 185-187):
[formula] wherein v0 and vi are the reaction velocities in the absence and presence, respectively, of the inhibitor, E is the active enzyme concentration, and I is the inhibitor concentration. The data were analyzed with GraphPad Prism version 4.00 software (GraphPad Software, San Diego, Calif., USA). Assay 2

[3] = biological target: T1, recombinant human soluble COMT (S-COMT); experiment: COMT inhibiting activity in vitro, Assay 2 (HPLC with fluorescence detection); type: biochemical; conditions: Assay 2: 0.8 nM S-COMT, esculetin 0.5 μM, Morrison equation
Protocol: as §1
Recombinant human S-COMT (0.8 nM) was incubated with the COMT inhibitor and 200 μM S-adenosyl-L-methionine in 100 mM Na2HPO4 buffer, pH 7.4, containing 5 mM MgCl2 for 30 min at 37° C. The reaction was started with the addition of esculetin for a final concentration of 0.5 μM and the reaction mixture with total volume of 200 μl was incubated for 30 min at 37° C. The reaction was stopped with 20 μl of 4 M HClO4 and the precipitated protein was removed by Sirocco protein precipitation plate (centrifuged at 4° C. for 10 min at 3000 g). O-Methylated esculetin was detected by Waters HT Alliance HPLC setup with Waters 474 fluorescence detector (Ex […], Em 460 nm, Gain 100). The analytes were separated isocratically using 0.1 M Na2HPO4, 20 mM citric acid, 0.15 mM EDTA, pH 3.2, in 40% methanol as mobile phase and Waters Spherisorb ODS2 (3 μm, 4.6 mm×100 mm) column. O-Methylated esculetin concentrations were calculated based on the standard curve and the Ki values were calculated using the Morrison equation as in Assay 1.

Row | SMILES | pKi [2] | pKi [3] | further results
1 | N#Cc1cc(O)c(O)c(C#N)c1-c1ccco1 [Example 6, 2-(Furan-2-yl)-4,5-dihydroxyisophthalonitrile] |  |  | Relative levodopa concentration [1]: 1.64
2 | CC(C)(C)/C=C/c1c(C#N)cc(O)c(O)c1C#N [Example 28, (E)-2-(3,3-Dimethylbut-1-enyl)-4,5-dihydroxyisophthalonitrile] |  |  | Relative levodopa concentration [1]: 2.69
3 | N#Cc1cc(O)c(O)c(C#N)c1CCCO [Example 187, 4,5-Dihydroxy-2-(3-hydroxypropyl)isophthalonitrile] | 8.49 |  | 
4 | COC(=O)CCc1ccc(Sc2c(C#N)cc(O)c(O)c2C#N)cc1 [Example 144, Methyl 3-(4-(2,6-dicyano-3,4-dihydroxyphenylthio)phenyl)propanoate] |  | 9.15 | 
5 | N#Cc1cc(O)c(O)c(C#N)c1Cc1ccc(F)cc1 [Example 55, 2-(4-Fluorobenzyl)-4,5-dihydroxyisophthalonitrile] |  |  | Relative levodopa concentration [1]: 1.31
6 | C=CCc1c(C#N)cc(O)c(O)c1C#N [Example 92, 2-Allyl-4,5-dihydroxyisophthalonitrile] |  |  | Relative levodopa concentration [1]: 1.42
7 | N#Cc1cc(O)c(O)c(C#N)c1Sc1cccc(C(=O)O)c1 [Example 172, 3-(2,6-Dicyano-3,4-dihydroxyphenylthio)benzoic acid] |  | 9.70 | 
8 | N#Cc1cc(O)c(O)c(C#N)c1Cc1ccc(CCC(=O)O)cc1 [Example 153, 3-(4-(2,6-Dicyano-3,4-dihydroxybenzyl)phenyl)propanoic acid] |  | 9.40 | 
9 | N#Cc1cc(O)c(O)c(C#N)c1N1CCOCC1 [Example 191, 4,5-Dihydroxy-2-morpholinoisophthalonitrile] | 8.54 |  | 
10 | N#Cc1cc(O)c(O)c(C#N)c1C1=CCOCC1 [Example 74, 2-(3,6-Dihydro-2H-pyran-4-yl)-4,5-dihydroxyisophthalonitrile] | 8.70 |  | 
11 | N#Cc1cc(O)c(O)c(C#N)c1Sc1ccc(CC(=O)O)cc1 [Example 164, 2-(4-(2,6-Dicyano-3,4-dihydroxyphenylthio)phenyl)acetic acid] |  | 9.70 | 
12 | N#Cc1cc(O)c(O)c(C#N)c1Br [Example 1, 2-Bromo-4,5-dihydroxyisophthalonitrile] |  |  | Relative levodopa concentration [1]: 1.65
13 | N#Cc1cc(O)c(O)c(C#N)c1Cc1ccccc1F [Example 60, 2-(2-Fluorobenzyl)-4,5-dihydroxyisophthalonitrile] |  |  | Relative levodopa concentration [1]: 1.13
14 | N#Cc1cc(O)c(O)c(C#N)c1/C=C/C(=O)O [Example 76, (E)-3-(2,6-Dicyano-3,4-dihydroxyphenyl)acrylic acid] | 8.48 |  | 
15 | N#Cc1cc(O)c(O)c(C#N)c1Sc1ccc2ccccc2c1 [Example 174, 4,5-Dihydroxy-2-(naphthalen-2-ylthio)isophthalonitrile] |  | 9.30 | 
16 | CC(C)=Cc1c(C#N)cc(O)c(O)c1C#N [Example 87, 4,5-Dihydroxy-2-(2-methylprop-1-enyl)isophthalonitrile] |  |  | Relative levodopa concentration [1]: 1.51
17 | C=Cc1c(C#N)cc(O)c(O)c1C#N [Example 89, 4,5-Dihydroxy-2-vinylisophthalonitrile] | 8.70 |  | 

The next lines start with results.

Row | pKi [2] | pKi [3] | SMILES | further results
18 |  | 9.52 | COc1ccc(Sc2c(C#N)cc(O)c(O)c2C#N)cc1 [Example 167, 4,5-Dihydroxy-2-(4-methoxyphenylthio)isophthalonitrile] | 
19 | 8.09 |  | N#Cc1cc(O)c(O)c(C#N)c1Cc1ccccc1 [Example 45, 2-Benzyl-4,5-dihydroxyisophthalonitrile] | 
20 |  | 9.03 | N#Cc1cc(O)c(O)c(C#N)c1Sc1ccc(Cl)cc1 [Example 159, 2-(4-Chlorophenylthio)-4,5-dihydroxyisophthalonitrile] | 
21 |  | 9.59 | Cc1ccc([S+]([O-])c2c(C#N)cc(O)c(O)c2C#N)cc1 (stereo not shown) [Example 156, 4,5-Dihydroxy-2-(p-tolylsulfinyl)isophthalonitrile] | 
22 | 8.70 |  | N#Cc1cc(O)c(O)c(C#N)c1-c1ccc(CCC(=O)O)cc1 [Example 32, 3-(2′,6′-Dicyano-3′,4′-dihydroxybiphenyl-4-yl)propanoic acid] | 
23 |  | 9.05 | N#Cc1cc(O)c(O)c(C#N)c1Sc1ccncc1 [Example 171, 4,5-Dihydroxy-2-(pyridin-4-ylthio)isophthalonitrile] | 
24 |  | 9.15 | Cc1ccccc1Sc1c(C#N)cc(O)c(O)c1C#N [Example 160, 4,5-Dihydroxy-2-(o-tolylthio)isophthalonitrile] | 
25 |  | 8.89 | N#Cc1cc(O)c(O)c(C#N)c1Cc1ccc(C(F)(F)F)cc1 [Example 154, 4,5-Dihydroxy-2-(4-(trifluoromethyl)benzyl)isophthalonitrile] | 
26 |  | 9.28 | CCc1ccc(Sc2c(C#N)cc(O)c(O)c2C#N)cc1 [Example 158, 2-(4-Ethylphenylthio)-4,5-dihydroxyisophthalonitrile] | 
27 | 9.72 |  | CC(C)S(=O)(=O)c1ccc(-c2c(C#N)cc(O)c(O)c2C#N)cc1 [Example 23, 3,4-Dihydroxy-4′-(isopropylsulfonyl)biphenyl-2,6-dicarbonitrile] | Relative levodopa concentration [1]: 1.34
28 |  | 9.30 | Cc1ccc(Oc2c(C#N)cc(O)c(O)c2C#N)c(C)c1 [Example 180, 2-(2,4-Dimethylphenoxy)-4,5-dihydroxyisophthalonitrile] | 
29 | 7.74 |  | Cc1ccc(/C=C/c2c(C#N)cc(O)c(O)c2C#N)cc1 [Example 121, (E)-4,5-Dihydroxy-2-(4-methylstyryl)isophthalonitrile] | 
30 | 8.02 |  | N#Cc1cc(O)c(O)c(C#N)c1-c1ccc(Cl)c(Cl)c1 [Example 38, 3′,4′-Dichloro-3,4-dihydroxybiphenyl-2,6-dicarbonitrile] | 
31 |  | 9.10 | CC(=O)c1ccc(Oc2c(C#N)cc(O)c(O)c2C#N)cc1 [Example 177, 2-(4-Acetylphenoxy)-4,5-dihydroxyisophthalonitrile] | 
32 | 8.19 |  | CCN(CC)C(=O)c1cccc(-c2c(C#N)cc(O)c(O)c2C#N)c1 [Example 100, 2′,6′-Dicyano-N,N-diethyl-3′,4′-dihydroxybiphenyl-3-carboxamide] | 
33 | 9.08 |  | N#Cc1cc(O)c(O)c(C#N)c1-c1cccs1 [Example 5, 4,5-Dihydroxy-2-(thiophen-2-yl)isophthalonitrile] | 
34 | 9.92 |  | N#Cc1cc(O)c(O)c(C#N)c1-c1cccc(C(=O)O)c1 [Example 26, 2′,6′-Dicyano-3′,4′-dihydroxybiphenyl-3-carboxylic acid] | 
35 | 8.82 |  | N#Cc1cc(O)c(O)c(C#N)c1-c1ccc2cc(O)ccc2c1 [Example 122, 4,5-Dihydroxy-2-(6-hydroxynaphthalen-2-yl)isophthalonitrile] | 
36 |  | 9.48 | N#Cc1cc(O)c(O)c(C#N)c1Cc1ccc(C(=O)O)cc1 [Example 118, 4-(2,6-Dicyano-3,4-dihydroxybenzyl)benzoic acid] | 
37 |  | 10.00 | Cc1ccc(S(=O)(=O)c2c(C#N)cc(O)c(O)c2C#N)cc1 [Example 209, 4,5-Dihydroxy-2-tosylisophthalonitrile] | 
38 |  | 8.80 | Cc1ccc(-c2c(C#N)cc(O)c(O)c2C#N)cc1 [Example 152, 3,4-Dihydroxy-4′-methylbiphenyl-2,6-dicarbonitrile] | 
39 |  | 9.52 | COC(=O)c1ccc(Sc2c(C#N)cc(O)c(O)c2C#N)cc1 [Example 161, Methyl 4-(2,6-dicyano-3,4-dihydroxyphenylthio)benzoate] | 
